The record followed here is ChEMBL document CHEMBL5113526, “Design, Synthesis, and Biological Evaluation of Androgen Receptor Degrading and Antagonizing Bifunctional Steroidal Analogs for the Treatment of Advanced Prostate Cancer” (J Med Chem, 2022).

The source made the active and inactive calls. No cut-off for these calls is given here.

Series [1] has as its target T1, Androgen receptor (Homo sapiens, UniProt P10275).
T1 sequence (P10275 whole entry): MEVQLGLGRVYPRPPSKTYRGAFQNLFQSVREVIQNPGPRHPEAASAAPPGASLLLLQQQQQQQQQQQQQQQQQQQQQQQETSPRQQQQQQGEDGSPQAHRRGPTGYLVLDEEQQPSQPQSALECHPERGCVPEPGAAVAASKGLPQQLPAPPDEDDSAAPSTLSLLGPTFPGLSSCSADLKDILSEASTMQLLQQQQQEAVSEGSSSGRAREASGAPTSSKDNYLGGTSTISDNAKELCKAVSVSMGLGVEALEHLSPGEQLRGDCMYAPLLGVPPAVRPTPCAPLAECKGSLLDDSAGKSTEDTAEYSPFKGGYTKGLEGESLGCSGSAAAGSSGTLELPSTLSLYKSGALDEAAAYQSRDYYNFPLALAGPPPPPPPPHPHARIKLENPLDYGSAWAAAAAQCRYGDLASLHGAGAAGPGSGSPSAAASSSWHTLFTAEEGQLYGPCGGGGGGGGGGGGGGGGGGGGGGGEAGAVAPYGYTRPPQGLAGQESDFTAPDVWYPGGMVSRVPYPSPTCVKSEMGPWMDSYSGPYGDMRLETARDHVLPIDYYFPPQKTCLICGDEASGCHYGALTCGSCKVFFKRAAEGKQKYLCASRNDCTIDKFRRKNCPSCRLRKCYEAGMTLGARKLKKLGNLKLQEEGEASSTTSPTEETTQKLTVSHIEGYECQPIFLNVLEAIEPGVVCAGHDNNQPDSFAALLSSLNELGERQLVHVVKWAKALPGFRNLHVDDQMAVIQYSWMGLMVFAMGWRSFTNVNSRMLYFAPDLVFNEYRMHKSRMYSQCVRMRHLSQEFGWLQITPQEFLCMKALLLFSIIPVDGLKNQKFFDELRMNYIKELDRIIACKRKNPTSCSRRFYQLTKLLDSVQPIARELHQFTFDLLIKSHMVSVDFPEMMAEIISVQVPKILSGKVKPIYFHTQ
Briefly: Induction of AR degradation in human LNCap cells incubated for 24 hrs by sandwich ELISA analysis. It is filed as cell-based.

The target in series [2] is T2, Steroid 17-alpha-hydroxylase/17,20 lyase (Homo sapiens, UniProt P05093).
T2 sequence (P05093 whole entry): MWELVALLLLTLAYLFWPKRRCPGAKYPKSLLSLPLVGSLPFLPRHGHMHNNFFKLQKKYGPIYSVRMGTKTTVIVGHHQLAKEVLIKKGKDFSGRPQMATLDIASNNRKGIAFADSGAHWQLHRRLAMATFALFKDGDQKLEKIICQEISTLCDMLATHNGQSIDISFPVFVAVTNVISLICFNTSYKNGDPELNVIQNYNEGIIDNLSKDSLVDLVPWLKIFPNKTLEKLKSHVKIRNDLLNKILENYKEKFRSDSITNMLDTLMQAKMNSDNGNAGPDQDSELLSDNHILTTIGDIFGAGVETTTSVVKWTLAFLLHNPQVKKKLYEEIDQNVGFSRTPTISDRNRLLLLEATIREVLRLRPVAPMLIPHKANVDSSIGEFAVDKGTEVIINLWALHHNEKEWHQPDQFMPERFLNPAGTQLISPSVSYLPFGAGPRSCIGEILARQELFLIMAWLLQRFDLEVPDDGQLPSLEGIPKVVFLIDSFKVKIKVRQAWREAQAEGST
The experiment in a line: Inhibition of human recombinant CYP17A1 incubated for 5 mins in presence of NADPH by LC-MS/MS analysis. It is filed as ADME.

In series [3] the test system is LNCaP. Briefly: cells. Conditions: Homo sapiens.
Description: Antiproliferative activity against human LNCAP cells assessed as reduction in cell viability measured after 6 days by CellTiter-Glo assay
A short description of series [4]: Terminal half life in Sprague-Dawley rat at 10 mg/kg, po measured up to 24 hrs by LC-MS/MS analysis. It is filed as ADME, organism-based. To be noted: in vivo, read-out: beta t1/2 (converted).
In series [5] the test system is LNCaP. The experiment in a line: Antiproliferative activity against human LNCAP cells assessed as reduction in cell viability at 10 uM measured after 6 days by CellTiterGlo assay relative to control. It is filed as functional. Conditions: time 6 day; for inhibition at 10 µM: Homo sapiens, LNCaP.
A short description of series [6]: Cmax in Sprague-Dawley rat at 10 mg/kg, po measured up to 24 hrs by LC-MS/MS analysis. Details: dose 10 mg/kg, time < 24 hrs, route po. To be noted: in vivo. Format: ADME, organism-based.
A short description of series [7]: Tmax in Sprague-Dawley rat at 10 mg/kg, po measured up to 24 hrs by LC-MS/MS analysis. Format: ADME, organism-based. Conditions: in vivo.
Series [8] in a line: AUC (0 to t) in Sprague-Dawley rat at 10 mg/kg, po measured up to 24 hrs by LC-MS/MS analysis. Format: ADME, organism-based. Details: time < 24 hrs, dose 10 mg/kg, route po. To be noted: in vivo.
Series [9] has as its target T1, Androgen receptor. The experiment in a line: Antagonist activity at DHT-induced Androgen receptor transcriptional activity in human HEK293 cells measured after 24 hrs by Steady-Glo reagent based assay. Format: cell-based.
A short description of series [10]: Inhibition of TP-stimulated andogen-sensitive seminal vesicle growth in castrated Sprague-Dawley rat at 20 mg/kg, po administered for 10 days and measured after 24 hrs last post dose by hershberger assay relative to control. It is filed as functional. To be noted: […].
Series [11] can be described thus: Inhibition of TP-stimulated andogen-sensitive ventral prostate growth in castrated Sprague-Dawley rat at 20 mg/kg, po administered for 10 days and measured after 24 hrs last post dose by hershberger assay relative to control. To be noted: time 10 day. Format: functional.
The target in series [12] is Voltage-gated inwardly rectifying potassium channel KCNH2 (Homo sapiens, UniProt Q12809). The experiment in a line: Inhibition of hERG potassium channel at -80 mV holding potential incubated for 3 mins by automated patch clamp method. It is filed as toxicity.
The nature of series [13]: Toxicity in castrated BALB/c nude mouse xenografted with enzalutamide-resisitant human C4-2B cells assessed as body weight loss at 30 mg/kg, po qd measured after 28 days. Conditions: in vivo, 672 h, time 28 day. It is filed as organism-based, LNCaP C4-2B.
The test system of series [14] is CWR22R. The experiment in a line: Antiproliferative activity against human 22Rv1 cells expressing AR-v7 assessed as reduction in cell viability measured after 6 days by CTG assay. It is filed as functional, cell-based.
For series [15], the target named is Androgen receptor (Homo sapiens, UniProt P10275, F877L). The experiment in a line: Antagonist activity at androgen receptor F876L mutant (unknown origin) expressed in HEK293 cells incubated for 24 hrs by luciferase reporter assay. It is filed as cell-based.
Series [16] relates to Androgen receptor (Homo sapiens), P10275 [UNDEFINED MUTATION]. Briefly: Induction of AR-v7 degradation in human 22Rv1 cells incubated for 24 hrs by Western blot analysis. Format: cell-based. To be noted: dose 1-20 µM, DDE = dose-dependent effect.
Series [17] can be described thus: Antagonist activity at androgen receptor W741L mutant (unknown origin) expressed in HEK293 cells incubated for 24 hrs by luciferase reporter assay. Format: cell-based. To be noted: Homo sapiens, HEK293, 24 h.
Series [18] deals with T3, Androgen receptor (Homo sapiens) (UniProt P10275).
T3 sequence (whole entry): T1 sequence (P10275 whole entry)
The experiment in a line: Induction of AR degradation in human LNCap cells at 20 uM by Western blot analysis. It is filed as cell-based. To be noted: time 2-24 hrs, TDE = time-dependent effect.

The subject of series [19] is CWR22R. Briefly: Antiproliferative activity against human 22Rv1 cells expressing AR-v7 assessed as reduction in cell viability at 30 uM measured after 6 days by CTG assay. It is filed as functional. Conditions: time 6 day.
Series [20] concerns LNCaP C4-2B. The experiment in a line: Antitumor activity against enzalutamide-resisitant human C4-2B cells xenografted in castrated BALB/c nude mouse assessed as change in tumor volume at 30 mg/kg, po qd measured after 4 weeks. Format: functional.
The target of series [21] is Androgen receptor (Homo sapiens, UniProt P10275, T878A). The experiment in a line: Antagonist activity at androgen receptor T877A mutant (unknown origin) expressed in HEK293 cells incubated for 24 hrs by luciferase reporter assay. Format: cell-based.
Series [22] addresses T3, Androgen receptor (Homo sapiens). The experiment in a line: Induction of AR degradation in human LNCap cells at 20 uM measured after 24 hrs by Western blot analysis. It is filed as cell-based.

Chain of Voltage-gated inwardly rectifying potassium channel KCNH2 (Q12809 whole entry): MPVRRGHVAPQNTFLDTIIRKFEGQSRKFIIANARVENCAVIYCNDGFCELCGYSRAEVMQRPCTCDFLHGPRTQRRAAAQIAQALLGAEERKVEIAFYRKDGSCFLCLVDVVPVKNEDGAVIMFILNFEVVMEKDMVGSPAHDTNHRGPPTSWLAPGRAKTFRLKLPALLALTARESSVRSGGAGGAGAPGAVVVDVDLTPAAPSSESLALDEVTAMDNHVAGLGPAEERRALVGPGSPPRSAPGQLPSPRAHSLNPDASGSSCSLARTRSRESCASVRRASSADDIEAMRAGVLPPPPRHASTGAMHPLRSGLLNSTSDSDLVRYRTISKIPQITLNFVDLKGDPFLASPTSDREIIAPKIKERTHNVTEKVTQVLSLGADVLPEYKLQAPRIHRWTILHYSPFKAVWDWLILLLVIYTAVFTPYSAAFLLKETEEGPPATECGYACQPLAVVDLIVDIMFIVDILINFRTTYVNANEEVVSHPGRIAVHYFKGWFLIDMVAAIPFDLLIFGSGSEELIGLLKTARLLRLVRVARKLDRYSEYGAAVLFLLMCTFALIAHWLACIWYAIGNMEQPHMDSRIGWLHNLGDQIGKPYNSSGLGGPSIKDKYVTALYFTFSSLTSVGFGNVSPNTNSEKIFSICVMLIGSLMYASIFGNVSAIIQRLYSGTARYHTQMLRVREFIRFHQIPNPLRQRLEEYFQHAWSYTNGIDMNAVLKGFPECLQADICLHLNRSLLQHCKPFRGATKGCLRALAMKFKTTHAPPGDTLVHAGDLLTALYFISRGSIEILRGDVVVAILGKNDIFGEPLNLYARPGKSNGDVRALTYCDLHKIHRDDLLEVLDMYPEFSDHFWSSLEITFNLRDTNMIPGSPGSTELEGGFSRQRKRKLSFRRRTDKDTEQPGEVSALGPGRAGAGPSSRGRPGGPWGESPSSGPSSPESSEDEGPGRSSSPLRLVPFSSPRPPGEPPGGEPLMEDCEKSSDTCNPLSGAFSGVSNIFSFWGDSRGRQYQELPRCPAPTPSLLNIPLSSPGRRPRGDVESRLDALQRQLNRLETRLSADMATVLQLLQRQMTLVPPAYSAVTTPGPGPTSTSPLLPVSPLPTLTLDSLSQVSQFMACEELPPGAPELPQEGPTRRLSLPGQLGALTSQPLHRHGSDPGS
Chain of Androgen receptor (Homo sapiens, UniProt P10275, F877L) (P10275 whole entry F877L): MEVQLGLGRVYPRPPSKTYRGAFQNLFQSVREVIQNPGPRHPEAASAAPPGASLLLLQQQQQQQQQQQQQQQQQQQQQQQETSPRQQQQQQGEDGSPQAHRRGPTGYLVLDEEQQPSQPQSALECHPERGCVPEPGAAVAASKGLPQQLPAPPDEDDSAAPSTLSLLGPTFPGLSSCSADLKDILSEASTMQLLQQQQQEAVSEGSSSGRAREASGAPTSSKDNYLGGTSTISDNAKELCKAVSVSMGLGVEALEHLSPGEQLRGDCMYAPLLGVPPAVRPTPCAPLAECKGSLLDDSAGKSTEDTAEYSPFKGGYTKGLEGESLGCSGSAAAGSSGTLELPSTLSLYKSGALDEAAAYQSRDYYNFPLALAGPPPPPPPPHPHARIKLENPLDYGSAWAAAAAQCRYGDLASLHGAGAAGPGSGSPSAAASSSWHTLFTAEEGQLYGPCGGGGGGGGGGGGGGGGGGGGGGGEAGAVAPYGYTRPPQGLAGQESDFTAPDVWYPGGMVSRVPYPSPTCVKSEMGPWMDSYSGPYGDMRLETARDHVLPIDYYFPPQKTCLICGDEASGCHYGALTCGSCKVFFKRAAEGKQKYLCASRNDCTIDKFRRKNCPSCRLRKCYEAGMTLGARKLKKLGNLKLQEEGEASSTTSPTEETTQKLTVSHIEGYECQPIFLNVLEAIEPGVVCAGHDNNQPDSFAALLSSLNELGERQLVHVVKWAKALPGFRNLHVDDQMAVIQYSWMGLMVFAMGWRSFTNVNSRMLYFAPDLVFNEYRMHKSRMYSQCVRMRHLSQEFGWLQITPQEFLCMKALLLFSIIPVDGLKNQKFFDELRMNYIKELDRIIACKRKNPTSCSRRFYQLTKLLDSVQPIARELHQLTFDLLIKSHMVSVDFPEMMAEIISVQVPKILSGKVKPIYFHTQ
Chain of Androgen receptor (Homo sapiens, UniProt P10275, T878A) (P10275 whole entry T878A): as the sequence (P10275 whole entry F877L) above, with L877F, T878A counted along it

As for `Cc1cn(C2=CC[C@H]3[C@@H]4CC=C5C[C@@H](NC(=O)c6ccnnc6)CC[C@]5(C)[C@H]4CC[C@]23C)cn1`, the DC50 in series [1] amounted to 2.08 µM. Moreover, the figures for the concentration for half-maximal inhibition (IC50) in [2], in series [3] and in series [9] were greater than 3 µM, 0.466 µM and 0.244 µM, respectively. In addition, the half-life in series [4] is 3.58 h. Besides, in series [5], the inhibition at 10 µM is 97%. Besides, the concentration in series [6] peaked (Cmax) at 0.802 µg/mL. Moreover, the time to peak (Tmax) in series [7] was determined as 4.67 h. In series [8], the exposure AUC(0-t) at 24 h came to 5.62 µg·h/mL.

`CNC(=O)c1ccc(N2C(=S)N(c3ccc(C#N)c(C(F)(F)F)c3)C(=O)C2(C)C)cc1F` [ENZALUTAMIDE]: the “inhibition (INH)” value in series [10] was determined as 67%; in [5], 68.83%; in [11] it was 67%.

With `C[C@]12CC[C@H](NC(=O)c3ccncc3)CC1=CC[C@@H]1[C@@H]2CC[C@]2(C)C(n3ccnc3)=CC[C@@H]12`, the IC50 in series [3] turned out to be 0.317 µM; in [9], 0.511 µM; in series [12] it was 4.99 µM. For the same molecule, the half-life in series [4] was 10 h. The inhibition at 10 µM in [5] worked out at 97%. Moreover, in series [6], the Cmax turned out to be 4.5 µg/mL. Also, in series [7], the Tmax turned out to be 2 h. The AUC(0-t) at 24 h in series [8] turned out to be 28.8 µg·h/mL.

Take `Cc1cn(C2=CC[C@H]3[C@@H]4CC=C5C[C@@H](NC(=O)c6ccncc6)CC[C@]5(C)[C@H]4CC[C@]23C)cn1`: the Activity result in series [13] was “Non-Toxic”; in series [16], “Dde”; in [18] it was “Tde”. Besides, the 50% inhibitory concentration (IC50) in series [14] stood at 0.59 µM; in series [15] it was 0.268 µM; in series [2] it was 2.59 µM; in series [3] it was 0.205 µM; in series [17], 0.49 µM; in series [9], 0.247 µM. The concentration for half-maximal inhibition (IC50) in series [12] turned out to be 6.47 µM; in [21] it was 0.209 µM. In [1], this molecule had a 50% degradation concentration (DC50) of 2.84 µM. For the same molecule, the inhibition in vivo at 20 mg/kg in series [10] (Rattus norvegicus, Sprague-Dawley, 576 h) stood at 62%; in [11] (Rattus norvegicus, Sprague-Dawley, 240 h), 66%. Further, the half-life in [4] is 2.8 h. For the same molecule, the inhibition at 10 µM in [5] turned out to be 99.3%. Further, the inhibition at 30 µM in series [19] was 37%. In series [6], this molecule yielded a Cmax of 2.67 µg/mL. For the same molecule, the time to peak (Tmax) in series [7] came to 2.17 h. The same molecule came in with an AUC(0-t) at 24 h in [8] of 24.8 µg·h/mL. Besides, the T/C in series [20] was -14%. Moreover, the result in [22] was Active.

As for `C[C@]12CC[C@H](NC(=O)c3ccnnc3)CC1=CC[C@@H]1[C@@H]2CC[C@]2(C)C(n3ccnn3)=CC[C@@H]12`, half-maximal degradation in [1] (DC50) was put at 4.36 µM. Moreover, the IC50 is greater than 3 µM in [2], 0.672 µM in series [3] and 9.14 µM in series [9].
